Read-outs that look alike come from different tables or passages of the source.
What was measured:
[1] = test system: HTT; assay: HiBiT protein abundance assay, HTT (K562 HiBiT knock-in); assay type: cell-based, human; settings: HiBiT knock-in K562 cells, 24 hours, top dose 10 μM
In short: (§1)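 Luminescence readout: Nano-Glo HiBiT lytic detection after 24 h compound exposure of K562 HiBiT knock-in cells, 10000 cells/well. Dosing 10-pt, 3-fold, top 10 μM final. % response vs untreated parental K562 and DMSO controls; 4PL fit, IC50 = concentration giving 50% protein abundance.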

[2] = test system: MYB; assay: HiBiT protein abundance assay, MYB (K562 HiBiT knock-in); assay type: cell-based, human; settings: HiBiT knock-in K562 cells, 24 hours, top dose 10 μM
In short: as §1

[3] = test system: K562 cells; assay: Cell Titer Glo 2.0 cell viability (toxicity) assay, K562; settings: 500 cells/well, 72 hours
[4] = test system: MYB mRNA; assay: RT-qPCR splicing assay, MYB mRNA canonical (CJ) and alternative (AJ) junction; assay type: cell-based, human; settings: for AC50: MYB alternative junction mRNA, read-out: MYB AJ (increase in AJ mRNA, AC50)
In short: (§2)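 A673 or K562 cells treated 24 h at 37 °C with an 11-point 3-fold dilution series (top 10 uM, DMSO ≤0.25%). Lysates went directly to one-step RT-qPCR quantifying canonical (CJ) and alternative-exon (AJ) junctions, normalized to GAPDH, GUSB or PPIA. Values from ΔΔCt versus DMSO, RQ = 2^(−ΔΔCt), expressed as percentage response.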

[5] = test system: Target C; assay: HiBiT protein abundance assay, Target C (K562 HiBiT knock-in); assay type: cell-based, human; settings: HiBiT knock-in K562 cells, 24 hours, top dose 10 μM
In short: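 K562 HiBiT knock-in cells (10000/well) were treated 24 h at 37° C with a 10-point 3-fold dilution series (top 10 μM final, ≤0.25% DMSO). HiBiT luminescence was read after lytic LgBiT detection. Percent response used unmodified K562 and DMSO-treated knock-in controls, and IC50 came from a four-parameter fit at 50% of untreated.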

[6] = test system: SMN2 mRNA; assay: RT-qPCR splicing assay, SMN2 mRNA; assay type: cell-based, human; settings: canonical junction qPCR panel, Table 4, read-out: SMN2 IC50 (decrease in CJ mRNA levels)
In short: as §2

[7] = test system: HTT mRNA; assay: RT-qPCR splicing assay, HTT mRNA canonical (CJ) and alternative (AJ) junction; assay type: cell-based, human; settings: for AC50: HTT alternative junction mRNA, read-out: HTT AJ (increase in AJ mRNA, AC50)
In short: as §2

[8] = Homo sapiens, MYB canonical junction mRNA, RT-qPCR, read-out: MYB CJ (decrease in CJ mRNA levels, IC50)
[9] = Homo sapiens, canonical junction qPCR panel, Table 4, read-out: MYB IC50 (decrease in CJ mRNA levels)
[10] = Homo sapiens, HTT canonical junction mRNA, RT-qPCR, read-out: HTT CJ (decrease in CJ mRNA levels, IC50)
[11] = Homo sapiens, canonical junction qPCR panel, Table 4, read-out: HTT IC50 (decrease in CJ mRNA levels)

Compound	IC50 [1] [nM]	IC50 [2] [nM]	Effect of Exemplary Compounds on Cell Viability, K562 [3]	AC50 ([4]; Homo sapiens, RT-qPCR) [nM]	IC50 [4, 8] [nM]	IC50 [4, 9] [nM]	IC50 [5] [nM]	IC50 ([6]; Homo sapiens) [nM]	AC50 ([7]; Homo sapiens, RT-qPCR) [nM]	IC50 [7, 10] [nM]	IC50 [7, 11] [nM]	AC50 ([4]; RT-qPCR) [nM]	IC50 ([4]; MYB canonical junction mRNA, RT-qPCR, read-out: MYB CJ (decrease in CJ mRNA levels, IC50)) [nM]	IC50 ([4]; canonical junction qPCR panel, Table 4, read-out: MYB IC50 (decrease in CJ mRNA levels)) [nM]	IC50 [6] [nM]	AC50 ([7]; RT-qPCR) [nM]	IC50 ([7]; HTT canonical junction mRNA, RT-qPCR, read-out: HTT CJ (decrease in CJ mRNA levels, IC50)) [nM]	IC50 ([7]; canonical junction qPCR panel, Table 4, read-out: HTT IC50 (decrease in CJ mRNA levels)) [nM]
CCN[C@@H]1CCN(c2ccc3nc(-c4cc5cn(C)nc5cc4O)ccc3n2)C1 [Compound 180]	< 100	< 100	A (A represents <100 nM)	< 100	< 100	< 100	100 to 1000	< 100	100 to 1000	< 100	< 100	–	–	–	–	–	–	–
Cn1cc2cc(-c3ccc4nc(N5CC[C@H](NCC(F)(F)F)C5)ccc4n3)c(O)cc2n1 [Compound 182]	> 10000	> 10000	D (D represents greater than 10 μM in K562 cells)	> 10000	1000 to 10000	1000 to 10000	> 10000	1000 to 10000	> 10000	1000 to 10000	1000 to 10000	–	–	–	–	–	–	–
Cn1cc2cc(-c3ccc4nc(C5CCNCC5)ccc4n3)ccc2n1 [Compound 184]	100 to 1000	100 to 1000	B (B represents 100-1000 nM)	100 to 1000	100 to 1000	100 to 1000	100 to 1000	< 100	100 to 1000	100 to 1000	100 to 1000	–	–	–	–	–	–	–
Cn1cc2cc(-c3ccc4nc(C5CCNCC5)ccc4n3)cc(F)c2n1 [Compound 185]	1000 to 10000	1000 to 10000	C (C represents 1000-9999 nM)	1000 to 10000	1000 to 10000	1000 to 10000	> 10000	100 to 1000	1000 to 10000	1000 to 10000	1000 to 10000	–	–	–	–	–	–	–
Cc1cn2nc(-c3ccc4nc(N5CCC(NC(C)(C)C)C5)ccc4n3)cc2c(C)n1 (centres unmarked) [Compound 187]	< 100	100 to 1000	B (B represents 100-1000 nM)	< 100	100 to 1000	100 to 1000	< 100	< 100	< 100	< 100	< 100	–	–	–	–	–	–	–
Cn1cc2cc(-c3ccc4nc(N5CC[C@@H](NC6COC6)C5)ccc4n3)c(O)cc2n1 [Compound 188]	100 to 1000	1000 to 10000	C (C represents 1000-9999 nM)	100 to 1000	100 to 1000	100 to 1000	1000 to 10000	< 100	100 to 1000	100 to 1000	100 to 1000	–	–	–	–	–	–	–
Cn1cc2cc(-c3ccc4nc(N5CC[C@H](NC6COC6)C5)ccc4n3)c(O)cc2n1 [Compound 189]	1000 to 10000	1000 to 10000	D (D represents greater than 10 μM in K562 cells)	100 to 1000	100 to 1000	100 to 1000	1000 to 10000	< 100	100 to 1000	1000 to 10000	1000 to 10000	–	–	–	–	–	–	–
Cc1nc2cc(O)c(-c3ccc4nc(N5CCC(NC(C)(C)C)C5)ccc4n3)cc2s1 (centres unmarked) [Compound 190]	> 10000	> 10000	C (C represents 1000-9999 nM)	> 10000	> 10000	> 10000	> 10000	< 100	> 10000	> 10000	> 10000	–	–	–	–	–	–	–
Cc1c(O)c(-c2ccc3nc(N4CCC(NC(C)(C)C)C4)ccc3n2)cc2cn(C)nc12 (centres unmarked) [Compound 191]	< 100	< 100	A (A represents <100 nM)	–	–	–	< 100	–	–	–	–	> 10000	> 10000	> 10000	> 10000	> 10000	> 10000	> 10000
Cn1cc2cc(-c3ccc4nc(C5CCNCC5)ccc4n3)c(F)cc2n1 [Compound 193]	1000 to 10000	1000 to 10000	C (C represents 1000-9999 nM)	1000 to 10000	1000 to 10000	1000 to 10000	1000 to 10000	1000 to 10000	1000 to 10000	1000 to 10000	1000 to 10000	–	–	–	–	–	–	–
Cn1cc2cc(-c3ccc4nc(N5CC[C@@H](NCC6CC6)C5)ccc4n3)c(O)cc2n1 [Compound 195]	100 to 1000	< 100	B (B represents 100-1000 nM)	< 100	100 to 1000	100 to 1000	100 to 1000	< 100	100 to 1000	100 to 1000	100 to 1000	–	–	–	–	–	–	–
Cn1cc2cc(-c3ccc4nc(C5CCNCC5)ccc4n3)c(C(F)F)cc2n1 [Compound 196]	> 10000	> 10000	D (D represents greater than 10 μM in K562 cells)	> 10000	> 10000	> 10000	> 10000	1000 to 10000	> 10000	> 10000	> 10000	–	–	–	–	–	–	–
Cn1cc2cc(-c3ccc4nc(N5CC[C@H](NC6CC6)C5)ccc4n3)c(O)cc2n1 [Compound 197]	< 100	100 to 1000	B (B represents 100-1000 nM)	100 to 1000	100 to 1000	100 to 1000	100 to 1000	< 100	< 100	< 100	< 100	–	–	–	–	–	–	–

Reference: patent publication US20250092065A1, “2-(INDAZOL-5-YL)-6-(PIPERIDIN-4-YL)-1,7-NAPHTHYRIDINE DERIVATIVES AND RELATED COMPOUNDS AS MODULATORS FOR SPLICING NUCLEIC ACIDS AND FOR THE TREATMENT OF PROLIFERATIVE DISEASES” (REMIX THERAPEUTICS INC., priority 2022, published 2025)
